Test system: Alzheimer's disease-induced mouse model (amyloid beta1-42 peptide-infused mouse model)
Assay: Morris water maze test (memory test)
Assay type: in vivo, C57BL/6 mouse
Conditions: Aβ-infused mice + donepezil 1 mg/kg (positive control); platform removed, 60 seconds free swimming; average ± S.E.M.
Experimental: Specifically, the following experiment was carried out by applying a conventional Morris method. First, a mouse was transferred to a behavior observation chamber and stabilized one hour before the initiation of the experiment. The maze dimension includes a diameter of 90 cm and a height of 32.5 cm, and the diameter of a white platform is 5 cm. In the periphery of the underwater maze, spatial cues such as a computer system connected with a video camera and a device for controlling a water temperature were always regularly maintained. Afterward, the maze was filled with water so that the platform is installed 1 cm below the water level, such that a mouse cannot see the platform. The maze was divided into quadrants using four markers, the quadrants were classified as northeast (NE), northwest (NW), southeast (SE), and southwest (SW), and the platform was installed in one quadrant of the maze. […] On the sixth day, the platform was removed from the maze, and then the residence time of a mouse in the quadrant in which the platform was placed was measured. On the final day […] of the Morris water maze test, to perform a memory test, the platform was removed, free swimming was allowed for 60 seconds, and the residence time of a mouse in the quadrant in which the platform was placed was measured in percentage using a Smart program.

COc1cc2c(cc1OC)C(=O)C(CC1CCN(Cc3ccccc3)CC1)C2 (stereo not shown) [donepezil]
Residence time in quadrant (%): 59.222±2.918%

Source: patent US20220080015A1, “METHOD OF PREVENTING AND TREATING NEURODEGENERATIVE DISORDERS USING SOPHORA JAPONICA L. EXTRACT AS ACTIVE INGREDIENT” (UNIVERSITY-INDUSTRY COOPERATION GROUP OF KYUNG HEE …, priority 2016, published 2022)
